We go through 4 molecules from patent US5280027A, “Anti-tumor compounds” (Imperial Chemical Industries PLC, priority 1990, dated 1994).

Each structure is given as a SMILES string. Like-named read-outs stand apart in the source and are kept apart here.

By IC50 is commonly meant the midpoint of a concentration-inhibition curve.

In series [1] the target is T1, thymidylate synthase (Mus musculus, UniProt P07607).
T1 construct: obtained in partially purified form from L1210 mouse leukaemia cells; endogenous in cells; host or cells: L1210 mouse leukaemia cells (enzyme partially purified)
T1 sequence (P07607 whole entry): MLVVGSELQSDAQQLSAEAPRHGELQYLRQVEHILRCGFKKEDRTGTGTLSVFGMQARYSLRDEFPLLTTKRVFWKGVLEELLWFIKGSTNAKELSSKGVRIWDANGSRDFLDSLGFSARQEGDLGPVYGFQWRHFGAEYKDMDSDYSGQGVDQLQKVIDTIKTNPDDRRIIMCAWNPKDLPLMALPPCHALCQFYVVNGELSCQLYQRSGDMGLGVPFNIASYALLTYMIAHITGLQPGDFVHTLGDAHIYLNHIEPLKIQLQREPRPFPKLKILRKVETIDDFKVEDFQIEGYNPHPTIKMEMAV
In words: Test (a): in vitro inhibition of the enzyme thymidylate synthase (partially purified from L1210 mouse leukaemia cells). The series is classed as biochemical. An excerpt: (a) An in vitro assay which determines the ability of a test compound to inhibit the enzyme thymidylate synthase. Thymidylate synthase was obtained in partially purified form from L1210 mouse leukaemia cells and utilised using the procedures described by Jackman et al. (Cancer Res., 1986, 46, 2810 and Sikora et al., Biochem. Pharmacol. 1988, 37, 4047);

For series [2], the system named is L1210 cell line. In words: Test (b): inhibition of growth of the leukaemia cell line L1210 in cell culture. Format: cell-based. To be noted: Mus musculus. An excerpt: (b) An assay which determines the ability of a test compound to inhibit the growth of the leukaemia cell line L1210 in cell culture. The test is similar to that described in UK Patent Specification No. 2065653B and has been described by Jones et al., J. Med. Chem., 1985, 28, 1468;

Series [3] has as its system MCF-7 cell line. In words: Test (c): inhibition of growth of the human breast cancer cell line MCF-7 in cell culture. The series is classed as cell-based. Conditions: MCF7, MCF-7 growth. An excerpt:
(c) An assay which determines the ability of a test compound to inhibit the growth of the human breast cancer cell line MCF-7 in cell culture. The test is similar to that described by Lippman et al. (Cancer Res., 1976, 36, 4595); and […]

Series [4] deals with human breast, ovarian and liver cancer. To be noted: clinical; cited from earlier work.
For series [5] the following is noted: cited from earlier work.
[6] abbreviates: Test (a), thymidylate synthase, read-out: IC50.

As for `C#CCN(Cc1ccc2nc(C)[nH]c(=O)c2c1)c1ccc(C(=O)NC(C(=O)NS(=O)(=O)c2ccc(OC)cc2)c2cccc([N+](=O)[O-])c2)cc1` (centres unmarked) [Example 10, N-[p-[N-(2-methyl-4-oxo-3,4-dihydroquinazolin-6-ylmethyl)-N-(prop-2-ynyl)amino]benzoyl]-(3-nitrophenyl)glycine N-(4-methoxyphenylsulphonyl)amide], the IC50 in series [1] was roughly 10 nM; in series [2], roughly 25 µM; in series [3], roughly 1000 nM.

In the case of `C#CCN(Cc1ccc2nc(N)[nH]c(=O)c2c1)c1ccc(C(=O)N[C@@H](CCC(=O)O)C(=O)O)cc1` [CB3717], the “activity against human breast, ovarian and liver cancer” value in series [4] is listed as “promising activity”. Moreover, the “toxicity in humans, particularly in relation to the liver and kidney” value in series [5] is “symptoms of toxicity in humans, particularly in relation to the liver and kidney”.

With `C#CCN(Cc1cc2c(=O)[nH]c(C)nc2cc1C)c1ccc(C(=O)NC(CO)c2cccc([N+](=O)[O-])c2)cc1` (centres unmarked) [Example 14, compound no. 2, p-[N-(2,7-dimethyl-4-oxo-3,4-dihydroquinazolin-6-ylmethyl)-N-(prop-2-ynyl)amino]-N-[2-hydroxy-1-(3-nitrophenyl)ethyl]benzamide], the IC50 in series [1] (setting [6]) is roughly 20 nM; in series [2] it was roughly 3.4 µM; in series [3], roughly 100 nM.

On to `C#CCN(Cc1ccc2nc(C)[nH]c(=O)c2c1)c1ccc(C(=O)NC(c2ccccc2)c2ccccc2)cc1` [Example 7, N-diphenylmethyl-p-[N-(2-methyl-4-oxo-3,4-dihydroquinazolin-6-ylmethyl)-N-(prop-2-ynyl)amino]benzamide], for which the IC50 in series [1] (setting [6]) was roughly 2000 nM; in series [2], roughly 7 µM; in series [3], roughly 1500 nM.
